We go through 4 compounds from ChEMBL document CHEMBL1130256, “1-[1-2-Benzo[b]thiopheneyl)cyclohexyl]piperidine hydrochloride (BTCP) yields two active primary metabolites in vitro: synthesis, identification from rat liver microsome extracts, and affinity for the neuronal dopamine transporter” (J Med Chem, 1997).

As a reminder, the IC50 is the concentration that gives 50% inhibition. A lower IC50 goes with greater potency in that assay.

Data set [1] can be described thus: Amount of metabolites in the microsomal medium after 90 min incubation of BTCP (500 uM). The conditions noted are these: microsomes, 1.5 h. The format is ADME, Microsome.
In data set [2] the target is Sodium-dependent dopamine transporter (Rattus norvegicus, UniProt P23977). The data set is described as follows: Inhibitory activity of compound against [3H]BTCP binding to neuronal dopamine transporter of rat striatal membrane.
Chain of Sodium-dependent dopamine transporter (P23977 whole entry): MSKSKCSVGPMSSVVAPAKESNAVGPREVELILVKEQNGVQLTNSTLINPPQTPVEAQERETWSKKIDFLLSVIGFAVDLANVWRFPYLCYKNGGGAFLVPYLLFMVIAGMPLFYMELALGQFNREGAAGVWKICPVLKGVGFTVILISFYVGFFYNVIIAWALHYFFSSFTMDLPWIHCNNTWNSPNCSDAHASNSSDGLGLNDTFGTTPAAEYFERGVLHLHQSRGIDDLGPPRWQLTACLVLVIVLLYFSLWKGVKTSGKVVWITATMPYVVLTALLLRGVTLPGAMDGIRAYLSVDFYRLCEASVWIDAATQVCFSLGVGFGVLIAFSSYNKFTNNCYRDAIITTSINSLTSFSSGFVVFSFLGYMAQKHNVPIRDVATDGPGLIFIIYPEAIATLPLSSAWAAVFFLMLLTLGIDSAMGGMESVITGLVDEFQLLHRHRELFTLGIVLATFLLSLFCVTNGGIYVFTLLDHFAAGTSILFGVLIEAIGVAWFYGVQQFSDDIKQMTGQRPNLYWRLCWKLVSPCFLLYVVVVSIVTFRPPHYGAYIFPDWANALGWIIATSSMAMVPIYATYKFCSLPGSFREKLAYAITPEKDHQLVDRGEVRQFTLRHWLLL

Consider `OC1CCCN(C2(c3cc4ccccc4s3)CCCCC2)C1` (stereo not given), for which the Amount in data set [1] came to 147 pmol. Also, in data set [2], the IC50 amounted to 1.75 nM. On to `OC1CCN(C2(c3cc4ccccc4s3)CCCCC2)CC1`, for which the Amount in data set [1] is 615 pmol. For the compound `O[C@@H]1CCC[C@@](c2cc3ccccc3s2)(N2CCCCC2)C1`, the Amount in data set [1] is 4 pM.

`OC1(c2cc3ccccc3s2)CCCCC1`: the Amount in data set [1] turned out to be 141 pmol.
